# Measured values as given in patent US6645918B1, “N-([1,2,4]triazoloazinyl)thiophenesulfonamide compounds and their use as herbicides” (Dow AgroSciences LLC, priority 2000, dated 2003).
# Tests used:
# Format in all cases: in vivo
# [1] = test system: velvetleaf (Abutilion theophrasti); experiment: Preemergence herbicidal activity, velvetleaf; settings: soil spray, visual after 3 weeks, 0 no injury, 100 complete kill or no germination
# Protocol: (§1) The soil matrix was contained in plastic pots with a surface area of 161 square centimeters. When required to ensure good germination and healthy plants, a fungicide treatment and/or other chemical or physical treatment was applied. A weighed amount, determined by the highest rate to be tested, of each test compound was placed in a 20 mL glass vial and was dissolved in 8 mL of a 97:3 v/v (volume/volume) mixture of acetone and dimethyl sulfoxide to obtain concentrated stock solutions. […] The stock solutions obtained were diluted with a 99.9:0.1 mixture of water and Tween® 155 surfactant (ethoxylated sorbitan fatty acid ester) to obtain application solutions of known concentration. The solutions containing the highest concentration to be tested were prepared by diluting 4 mL aliquots of the stock solution with 8.5 mL of the mixture and lower concentrations were prepared by dilution of appropriate smaller portions of the stock solution. A 2.5 mL aliquot of each solution of known concentration was sprayed evenly onto the soil of each seeded pot using a Cornwall 5.0 mL glass syringe fitted with a TeeJet TN-3 hollow cone nozzle to obtain thorough coverage of the soil in each pot. Control pots were sprayed in the same manner with the aqueous mixture. A highest application rate of 4.48 kg/ha is achieved when 50 mg of test compound is employed. The treated pots and control pots were placed in a greenhouse with an approximately 15 hr photoperiod which was maintained at about 23-29° C. during the day and 22-28° C. during the night. Nutrients and water were added on a regular basis and supplemental lighting was provided with overhead metal halide 1000 Watt lamps as necessary. The water was added by top-irrigation. After 3 weeks the condition of the test plants that germinated and grew as compared with that of the untreated plants that germinated and grew was determined visually and scored on a scale of 0 to 100 percent where 0 corresponds to no injury and 100 corresponds to complete kill or no germination.
# viola (Viola tricolor) = experiment: Postemergence herbicidal activity, viola; settings: foliar spray, visual after 2 weeks, 0 no injury, 100 complete kill
# Protocol: (§2) Seeds of the desired test plant species were planted in Grace-Sierra MetroMix® 306 planting mixture, which typically has a pH of 6.0 to 6.8 and an organic matter content of about 30 percent, in plastic pots with a surface area of 64 square centimeters. When required to ensure good germination and healthy plants, a fungicide treatment and/or other chemical or physical treatment was applied. The plants were grown for 7-21 days in a greenhouse with an approximately 15 hr photoperiod which was maintained at about 23-29° C. during the day and 22-28° C. during the night. Nutrients and water were added on a regular basis and supplemental lighting was provided with overhead metal halide 1000 Watt lamps as necessary. The plants were employed for testing when they reached the first or second true leaf stage. A weighed amount of each test compound, determined by the highest rate to be tested, was placed in a 20 mL glass vial and was dissolved in 4 mL of a 97:3 v/v (volume/volume) mixture of acetone and dimethyl sulfoxide to obtain concentrated stock solutions. […] The concentrated stock solutions obtained were diluted with an aqueous mixture containing acetone, water, iso-propyl alcohol, dimethyl sulfoxide, Atplus 411F crop oil concentrate, and Triton X-155 surfactant (methylenebisdiamyl phenoxy polyethoxy ethanol) in a 48.5:39:10:1.5:1.0:0.02 v/v ratio to obtain spray solutions of known concentration. The solutions containing the highest concentration to be tested were prepared by diluting 2 mL aliquots of the stock solution with 13 mL of the mixture and lower concentrations were prepared by dilution of appropriate smaller portions of the stock solution. Approximately 1.5 mL aliquots of each solution of known concentration were sprayed evenly onto each of the test plant pots using a DeVilbiss atomizer driven by compressed air pressure of 2 to 4 psi (140 to 280 kilopascals) to obtain thorough coverage of each plant. Control plants were sprayed in the same manner with the aqueous mixture. In this test an application rate of 1 ppm results in the application of approximately 1 g/ha. The treated plants and control plants were placed in a greenhouse as described above and watered by sub-irrigation to prevent wash-off of the test compounds. After 2 weeks the condition of the test plants as compared with that of the untreated plants was determined visually and scored on a scale of 0 to 100 percent where 0 corresponds to no injury and 100 corresponds to complete kill.
# [2] = test system: velvetleaf (Abutilion theophrasti); experiment: Postemergence herbicidal activity, velvetleaf; settings: foliar spray, visual after 2 weeks, 0 no injury, 100 complete kill
# Protocol: as §2
# wild oats (Avena fatua) [3] = experiment: Preemergence herbicidal activity, wild oats; settings: soil spray, visual after 3 weeks, 0 no injury, 100 complete kill or no germination
# Protocol: as §1
# [4] = test system: Rox orange sorghum (Sorghum bicolor); experiment: Preemergence herbicidal activity, Rox orange sorghum; settings: soil spray, visual after 3 weeks, 0 no injury, 100 complete kill or no germination
# Protocol: as §1
# [5] = test system: lambsquarters (Chenopodium album); experiment: Postemergence herbicidal activity, lambsquarters; settings: foliar spray, visual after 2 weeks, 0 no injury, 100 complete kill
# Protocol: as §2
# wild oats (Avena fatua) [6] = experiment: Postemergence herbicidal activity, wild oats; settings: foliar spray, visual after 2 weeks, 0 no injury, 100 complete kill
# Protocol: as §2
# [7] = test system: giant foxtail (Setaria faberi); experiment: Preemergence herbicidal activity, giant foxtail; settings: soil spray, visual after 3 weeks, 0 no injury, 100 complete kill or no germination
# Protocol: as §1
# [8] = test system: morningglory (Ipomoea hederacea); experiment: Postemergence herbicidal activity, morningglory; settings: foliar spray, visual after 2 weeks, 0 no injury, 100 complete kill
# Protocol: as §2
# [9] = test system: wild poinsettia (Euphorbia heterophylla); experiment: Preemergence herbicidal activity, wild poinsettia; settings: soil spray, visual after 3 weeks, 0 no injury, 100 complete kill or no germination
# Protocol: as §1
# [10] = test system: pigweed (Amaranthus retroflexus); experiment: Postemergence herbicidal activity, pigweed; settings: 7.8 ppm, foliar spray, visual after 2 weeks; 0 no injury, 100 complete kill
# Protocol: as §2
# [11] = test system: wild buckwheat (Polygonum convolvulus); experiment: Postemergence herbicidal activity, wild buckwheat; settings: 7.8 ppm, foliar spray, visual after 2 weeks; 0 no injury, 100 complete kill
# Protocol: as §2
# [12] = test system: cocklebur (Xanthium strumarium); experiment: Postemergence herbicidal activity, cocklebur; settings: foliar spray, visual after 2 weeks, 0 no injury, 100 complete kill
# Protocol: as §2
# [13] = test system: blackgrass (Alopecurus myosuroides); experiment: Preemergence herbicidal activity, blackgrass; settings: soil spray, visual after 3 weeks, 0 no injury, 100 complete kill or no germination
# Protocol: as §1
# [14] = test system: crabgrass (Digitaria sanguinalis); experiment: Preemergence herbicidal activity, crabgrass; settings: soil spray, visual after 3 weeks, 0 no injury, 100 complete kill or no germination
# Protocol: as §1
# [15] = test system: lambsquarters (Chenopodium album); experiment: Preemergence herbicidal activity, lambsquarters; settings: 8.8 g/Ha, soil spray, visual after 3 weeks; 0 no injury, 100 complete kill or no germination
# Protocol: as §1
# [16] = test system: barnyardgrass (Echinochloa crus-galli); experiment: Preemergence herbicidal activity, barnyardgrass; settings: soil spray, visual after 3 weeks, 0 no injury, 100 complete kill or no germination
# Protocol: as §1
# [17] = test system: Rox orange sorghum (Sorghum bicolor); experiment: Postemergence herbicidal activity, Rox orange sorghum; settings: foliar spray, visual after 2 weeks, 0 no injury, 100 complete kill
# Protocol: as §2
# [18] = test system: pigweed (Amaranthus retroflexus); experiment: Preemergence herbicidal activity, pigweed; settings: soil spray, visual after 3 weeks, 0 no injury, 100 complete kill or no germination
# Protocol: as §1
# [19] = test system: morningglory (Ipomoea hederacea); experiment: Preemergence herbicidal activity, morningglory; settings: soil spray, visual after 3 weeks, 0 no injury, 100 complete kill or no germination
# Protocol: as §1
# [20] = test system: giant foxtail (Setaria faberi); experiment: Postemergence herbicidal activity, giant foxtail; settings: foliar spray, visual after 2 weeks, 0 no injury, 100 complete kill
# Protocol: as §2
# [21] = test system: chickweed (Stellaria media); experiment: Postemergence herbicidal activity, chickweed; settings: foliar spray, visual after 2 weeks, 0 no injury, 100 complete kill
# Protocol: as §2
# [22] = test system: blackgrass (Alopecurus myosuroides); experiment: Postemergence herbicidal activity, blackgrass; settings: foliar spray, visual after 2 weeks, 0 no injury, 100 complete kill
# Protocol: as §2
# [23] = test system: cocklebur (Xanthium strumarium); experiment: Preemergence herbicidal activity, cocklebur; settings: 4.4 g/Ha, soil spray, visual after 3 weeks; 0 no injury, 100 complete kill or no germination
# Protocol: as §1
compound,measurement,setting,value
COc1ccsc1S(=O)(=O)Nc1nc2c(Cl)cnc(OC)n2n1 [Compound 2],ABUTH preemergence injury score 0-100,[1]; 8.8 g/Ha,75%
same,VIOTR postemergence injury score 0-100,viola (Viola tricolor); 7.8 ppm,95%
same,ABUTH postemergence injury score 0-100,[2]; 7.8 ppm,95%
same,AVEFA preemergence injury score 0-100,wild oats (Avena fatua) [3]; 8.8 g/Ha,100%
same,SORBI preemergence injury score 0-100,[4]; 8.8 g/Ha,100%
same,CHEAL postemergence injury score 0-100,[5]; 7.8 ppm,90%
same,AVEFA postemergence injury score 0-100,wild oats (Avena fatua) [6]; 7.8 ppm,90%
same,SETFA preemergence injury score 0-100,[7]; 8.8 g/Ha,100%
same,IPOHE postemergence injury score 0-100,[8]; 7.8 ppm,85%
same,EPHHL preemergence injury score 0-100,[9]; 8.8 g/Ha,90%
same,AMARE postemergence injury score 0-100,[10],98%
same,POLCO postemergence injury score 0-100,[11],90%
same,XANST postemergence injury score 0-100,[12]; 7.8 ppm,60%
same,ALOMY preemergence injury score 0-100,[13]; 8.8 g/Ha,95%
same,DIGSA preemergence injury score 0-100,[14]; 8.8 g/Ha,100%
same,CHEAL preemergence injury score 0-100,[15],98%
same,ECHCG preemergence injury score 0-100,[16]; 8.8 g/Ha,75%
same,SORBI postemergence injury score 0-100,[17]; 7.8 ppm,98%
same,AMARE preemergence injury score 0-100,[18]; 8.8 g/Ha,95%
same,IPOHE preemergence injury score 0-100,[19]; 8.8 g/Ha,80%
same,SETFA postemergence injury score 0-100,[20]; 7.8 ppm,98%
same,STEME postemergence injury score 0-100,[21]; 7.8 ppm,98%
same,ALOMY postemergence injury score 0-100,[22]; 7.8 ppm,70%
"COc1cscc1S(=O)(=O)Nc1nc2c(OC)cnc(OC)n2n1 [Compound 7, N-(5,8-dimethoxy[1,2,4]triazolo[1,5-c]pyrimidin-2-yl)-4-methoxythiophene-3-sulfonamide]",ABUTH preemergence injury score 0-100,[1]; 4.4 g/Ha,95%
same,VIOTR postemergence injury score 0-100,viola (Viola tricolor); 1.9 ppm,80%
same,ABUTH postemergence injury score 0-100,[2]; 1.9 ppm,80%
same,AVEFA preemergence injury score 0-100,wild oats (Avena fatua) [3]; 4.4 g/Ha,100%
same,SORBI preemergence injury score 0-100,[4]; 4.4 g/Ha,100%
same,CHEAL postemergence injury score 0-100,[5]; 1.9 ppm,60%
same,AVEFA postemergence injury score 0-100,wild oats (Avena fatua) [6]; 1.9 ppm,98%
same,SETFA preemergence injury score 0-100,[7]; 4.4 g/Ha,100%
same,XANST preemergence injury score 0-100,[23],80%
same,IPOHE postemergence injury score 0-100,[8]; 1.9 ppm,80%
same,EPHHL preemergence injury score 0-100,[9]; 4.4 g/Ha,85%
same,XANST postemergence injury score 0-100,[12]; 1.9 ppm,80%
same,ALOMY preemergence injury score 0-100,[13]; 4.4 g/Ha,100%
same,DIGSA preemergence injury score 0-100,[14]; 4.4 g/Ha,100%
same,ECHCG preemergence injury score 0-100,[16]; 4.4 g/Ha,99%
same,SORBI postemergence injury score 0-100,[17]; 1.9 ppm,98%
same,AMARE preemergence injury score 0-100,[18]; 4.4 g/Ha,95%
same,IPOHE preemergence injury score 0-100,[19]; 4.4 g/Ha,85%
same,SETFA postemergence injury score 0-100,[20]; 1.9 ppm,100%
same,STEME postemergence injury score 0-100,[21]; 1.9 ppm,98%
same,ALOMY postemergence injury score 0-100,[22]; 1.9 ppm,98%
